Data from US7033604B2, “Composition for topical administration” (Sucampo AG, priority 2001, dated 2006).
Marks after values point to notes of the source that are not given here.

Columns and labels:
[1] = test system: Pseudomonas aeruginosa IID-1210; assay: Anti-microbial test: viable bacterial counts in wounded rabbit cornea inoculated with Pseudomonas aeruginosa; format: in vivo; conditions: for Colony forming units per gram of cornea Mean ± SE: cornea excised 4 hours after administration, Japanese white rabbits, 6 eyes
Experimental: Single colony isolate of Pseudomonas aeruginosa IID-1210 (provided by Department of Ophthalmology, Yokohama City University School of Medicine, Japan) on NAC agar plate was inoculated in 2 mL of heart infusion broth, and kept for overnight at 37° C. One hundred microliters of the overnight culture was inoculated in 10 mL of heart infusion broth, and then grown for about 12 hours at 37° C. with shaking. Twelve Japanese white rabbits (13 weeks old, Std: JW/CSK, Japan SLC, Inc.) were anesthetized by intravenous injection of pentobarbital sodium (25 mg/kg), and then topical anesthesia was made by instillation of 0.4% oxybuprocaine hydrochloride to both eyes. The corneal wound was produced bilaterally using a 6-mm trephine and 27-gauge needle according to the method described by Hatano H et al. (Japanese Review of Clinical Ophthalmology 79: 1153, 1985). Forty microliters of the bacterial suspension prepared above was instilled onto the wounded cornea twice (Day 1, 21:00). After bacterial inoculation, the rabbits were divided into 4 groups (three rabbits-six eyes/group). Fifty microliters of each test substance or vehicle was topically applied to both eyes of each animal once 12 hours after bacterial inoculation (Day 2, 9:00). […] Four hours after administration of test substances, the animals were sacrificed with an intravenous overdose of pentobarbital sodium, eyes were enucleated, and then corneas were excised using a 6-mm trephine. After weighing, each cornea was homogenized in 1 mL of sterile physiological saline. Aliquot (0.1 mL) of each homogenate was plated on NAC agar, and incubated for 24 hours at 37° C. The colonies were then counted. All quantitative cultures were run in triplicate, and the arithmetic mean of three measurements was determined for each cornea. Results were expressed as the number of organisms (determined by measures of colony forming units [CFU]) per gram of corneal weight.

[2] = test system: Experimental Pseudomonas keratitis; assay: Anti-inflammatory test: slit lamp scoring of conjunctival and corneal inflammation in experimental Pseudomonas keratitis; format: in vivo, Japanese white rabbits; conditions: for Score (conjunctiva) Mean ± SE: conjunctival inflammation at 48 hours after bacterial inoculation, sum of scores; for Score (conjunctiva) Mean ± SE / Score (cornea) Mean ± SE: 6 eyes; for Score (cornea) Mean ± SE: corneal inflammation at 60 hours after bacterial inoculation, sum of corneal opacity (0–8) and corneal ulcer (0–3)
Experimental: Experimental Pseudomonas keratitis was induced for 12 Japanese white rabbits (13 weeks old, Std: JW/CSK) as described in Test Experiment 1. After bacterial inoculation, the rabbits were divided into 4 groups (three rabbits-six eyes/group). Fifty microliters of each test substance or vehicle was topically applied to both eyes of each animal 4 times a day at intervals of 4 hours beginning 12 hours after the bacterial inoculation. The test substance and vehicle were the same as those used in Test Example 1. Rabbit eyes were examined with a slit lamp biomicroscope, and severity of conjunctival inflammation at 48 hours after bacterial inoculation and corneal inflammation at 60 hours after bacterial inoculation were evaluated by assigning a numerical value to the following signs based on the method described by Kuriyama H et al. Corneal inflammation was evaluated by sums of the scores of corneal opacity (score 0–8) and corneal ulcer (score 0–3). Conjunctival inflammation was evaluated by sums of the scores of redness of palpebral conjunctival inflammation (score 0–4), edema of palpebral conjunctiva (score 0–4), nictitating membrane status (score 0–3) and discharge (score 0–3).

[3] = 0.3% ofloxacin, 50 microliters topically 4 times a day from 12 hours after inoculation
[4] = 0.06% FK-506, 50 microliters topically 4 times a day from 12 hours after inoculation

Compound	Colony forming units per gram of cornea Mean ± SE ([1]; 0.3% ofloxacin, 50 microliters topically to both eyes once 12 hours after bacterial inoculation)	Score (conjunctiva) Mean ± SE [2, 3]	Score (cornea) Mean ± SE [2, 3]	Colony forming units per gram of cornea Mean ± SE ([1]; 0.06% FK-506, 50 microliters topically to both eyes once 12 hours after bacterial inoculation)	Effect on viable Pseudomonas counts (in words) ([1]; 0.06% FK-506, single topical application, compared with vehicle treatment)	Effect on conjunctival inflammation (in words) ([2]; 0.06% FK-506, 4 times a day, 48 hours after inoculation)	Effect on corneal inflammation (in words) ([2]; 0.06% FK-506, 4 times a day, 60 hours after inoculation)	Score (conjunctiva) Mean ± SE [2, 4]	Score (cornea) Mean ± SE [2, 4]
CC1COc2c(N3CCN(C)CC3)c(F)cc3c(=O)c(C(=O)O)cn1c23 (stereo not drawn) [ofloxacin]	0^a),b) Colony forming units per gram of cornea	6.0 ± 0.5	2.1 ± 0.4^a)						
C=CCC1/C=C(\C)CC(C)CC(OC)C2OC(O)(C(=O)C(=O)N3CCCCC3C(=O)OC(/C(C)=C/C3CCC(O)C(OC)C3)C(C)C(O)CC1=O)C(C)CC2OC (stereo not drawn) [FK-506, 17-allyl-1,14-dihydroxy-12-[2-(4-hydroxy-3-methoxycyclohexyl)-1-methylvinyl]-23,25-dimethoxy-13,19,21,27-tetramethyl-11,28-dioxa-4-azatricyclo [22.3.1.0^4,9]octacos-18-ene-2,3,10,16-tetraone]				31225 ± 7204 Colony forming units per gram of cornea	decreased the viable Pseudomonas counts as compared with vehicle treatment, but not significantly	tended to decrease the conjunctival inflammation	tended to decrease the corneal inflammation	6.7 ± 0.4	6.0 ± 0.0
